One assay has as its system Human survivin promoter. The experiment in a line: Survivin/luciferase reporter (Survivin-Hek-293). The note with it: Homo sapiens; Survivin-Hek-293, 24 hours; read-out: survivin/luciferase reporter: did not inhibit up to. In kind it is cell-based. The procedure:
Hek293 cells were stably transfected with plasmid that contains multiple TCF/LEF fragments in front of Luciferase gene. Wnt/β-catenin activity was determined from luciferase expression levels. […] Briefly, stably transfected Hek-293, STFI.1 (Wnt/β-catenin-driven luciferase) and Survivin-Hek-293 (1 Kb Human survivin promoter-driven luciferase) cells were maintained in DMEM, 10% FBS, Pen/Strep with 400 μg/mL G418 or 2 μg/mL puromycin, respectively. To check the activity of ICG-001, YH249, and YH250, the cells were split into white-opaque 96-well plates at 10,000 cells per well and allowed to attach overnight. For SuperTOPLASH, the inhibitors were added to the cells and pre-incubated for 1 hour prior to stimulation with 10 mM Li Cl for 24 hours. Luciferase activity was read using BrightGlo (Promnega) luciferase substrate. For survivin/luc, the inhibitors were added to the cells and incubated for 24 hours prior to readout. To calculate IC5o values, the resulting curve was fitted to a four-parameter logistic model (4PL) using GraphPad Prism 5 software.
B. Survivin Expression Level: The Secondary Screen.
An endogenous human survivin 1 kb promoter was inserted before a luciferase gene. […] R1 and R2 were diversified in this study. Percent inhibition of luciferase activity was calculated according to the following equations; % inhibition of STF 1.1 reporter activity=(I−RLU(10 mM LiCl) treated/RLU(10 omM LiCl) vehicle×control)100, % inhibition of Survivin reporter activity=(1−RLUtreated/RLU vehicle control)×100. Error bars indicate the mean±SE of 3 separate experiments. Selectivity (FIG. 2H) was calculated by IC50 value for Survivin-Hek-293/IC50 value for STF 1.1.
For orientation: In a reporter assay the amount or activity of a reporter protein is the signal.

The target of assay [1] is T1, p300/γ-catenin interaction (Mus musculus, UniProt B2RWS6).
T1 construct: bone marrow Sca-1posit cells were isolated with Anti-Sca-1 microbeads; from tissue; host or cells: bone marrow Sca-1 positive cells of female C57/Black mice dosed in vivo
T1 sequence (B2RWS6 2-2412 limits assumed): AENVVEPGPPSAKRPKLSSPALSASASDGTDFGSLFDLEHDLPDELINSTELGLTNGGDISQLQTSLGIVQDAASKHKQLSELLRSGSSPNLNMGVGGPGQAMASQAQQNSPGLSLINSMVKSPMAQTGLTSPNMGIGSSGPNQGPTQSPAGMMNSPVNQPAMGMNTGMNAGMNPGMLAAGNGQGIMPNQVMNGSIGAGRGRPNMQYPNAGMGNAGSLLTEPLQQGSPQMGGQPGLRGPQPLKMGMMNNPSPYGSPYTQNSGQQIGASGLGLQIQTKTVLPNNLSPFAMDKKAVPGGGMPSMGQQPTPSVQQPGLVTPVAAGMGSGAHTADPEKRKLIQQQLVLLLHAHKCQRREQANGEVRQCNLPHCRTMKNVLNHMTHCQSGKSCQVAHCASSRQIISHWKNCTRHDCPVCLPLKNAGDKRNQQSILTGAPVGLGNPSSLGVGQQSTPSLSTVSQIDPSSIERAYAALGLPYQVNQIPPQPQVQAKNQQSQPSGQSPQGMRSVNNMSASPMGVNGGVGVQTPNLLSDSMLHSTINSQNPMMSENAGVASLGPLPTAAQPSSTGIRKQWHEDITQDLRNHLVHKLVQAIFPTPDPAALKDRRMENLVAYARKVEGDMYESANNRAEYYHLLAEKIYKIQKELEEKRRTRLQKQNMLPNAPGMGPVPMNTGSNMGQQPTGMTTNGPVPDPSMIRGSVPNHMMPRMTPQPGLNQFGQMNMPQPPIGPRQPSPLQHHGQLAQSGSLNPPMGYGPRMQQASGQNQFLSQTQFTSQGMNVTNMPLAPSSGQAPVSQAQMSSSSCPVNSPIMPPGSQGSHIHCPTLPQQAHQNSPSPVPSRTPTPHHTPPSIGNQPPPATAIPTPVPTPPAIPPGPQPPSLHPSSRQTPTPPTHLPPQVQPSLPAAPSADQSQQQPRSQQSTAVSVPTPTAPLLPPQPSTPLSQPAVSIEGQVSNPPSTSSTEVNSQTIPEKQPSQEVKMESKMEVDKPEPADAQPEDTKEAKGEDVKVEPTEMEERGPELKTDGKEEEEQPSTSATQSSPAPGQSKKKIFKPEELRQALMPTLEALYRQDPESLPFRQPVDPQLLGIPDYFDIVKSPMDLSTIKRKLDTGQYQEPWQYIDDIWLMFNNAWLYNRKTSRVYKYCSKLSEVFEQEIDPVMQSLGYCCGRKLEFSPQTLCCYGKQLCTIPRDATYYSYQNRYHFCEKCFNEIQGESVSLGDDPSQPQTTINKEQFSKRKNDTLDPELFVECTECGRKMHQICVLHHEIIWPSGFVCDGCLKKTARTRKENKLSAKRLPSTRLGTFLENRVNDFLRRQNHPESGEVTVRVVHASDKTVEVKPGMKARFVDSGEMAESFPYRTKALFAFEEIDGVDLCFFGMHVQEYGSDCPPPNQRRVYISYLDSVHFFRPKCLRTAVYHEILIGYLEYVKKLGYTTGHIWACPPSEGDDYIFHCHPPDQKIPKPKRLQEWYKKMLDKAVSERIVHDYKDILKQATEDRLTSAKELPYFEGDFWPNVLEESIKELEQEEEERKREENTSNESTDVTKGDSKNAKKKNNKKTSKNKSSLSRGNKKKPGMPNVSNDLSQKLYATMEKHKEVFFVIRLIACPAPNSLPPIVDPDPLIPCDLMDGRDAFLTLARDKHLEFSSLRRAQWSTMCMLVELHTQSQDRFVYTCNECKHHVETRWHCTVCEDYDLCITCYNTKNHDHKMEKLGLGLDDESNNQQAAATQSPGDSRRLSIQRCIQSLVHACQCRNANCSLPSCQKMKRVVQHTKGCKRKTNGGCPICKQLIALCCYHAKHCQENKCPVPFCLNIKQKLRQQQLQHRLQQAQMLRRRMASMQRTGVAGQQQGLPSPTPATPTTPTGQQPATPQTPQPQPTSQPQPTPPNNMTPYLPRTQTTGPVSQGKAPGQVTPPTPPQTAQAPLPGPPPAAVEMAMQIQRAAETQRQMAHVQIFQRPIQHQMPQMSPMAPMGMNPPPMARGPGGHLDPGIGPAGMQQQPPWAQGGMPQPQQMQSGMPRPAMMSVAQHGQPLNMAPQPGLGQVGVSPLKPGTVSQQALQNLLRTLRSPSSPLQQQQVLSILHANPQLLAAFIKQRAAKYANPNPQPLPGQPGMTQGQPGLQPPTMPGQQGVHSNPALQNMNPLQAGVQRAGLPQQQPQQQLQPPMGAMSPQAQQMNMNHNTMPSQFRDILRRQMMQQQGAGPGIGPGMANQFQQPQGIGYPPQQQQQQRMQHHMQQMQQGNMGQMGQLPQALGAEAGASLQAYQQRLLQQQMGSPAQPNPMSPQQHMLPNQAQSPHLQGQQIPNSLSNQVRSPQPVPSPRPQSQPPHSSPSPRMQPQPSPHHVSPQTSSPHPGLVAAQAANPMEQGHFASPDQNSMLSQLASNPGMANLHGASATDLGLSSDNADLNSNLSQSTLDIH
The experiment in a line: Co-IP of bone marrow Sca-1posit cells from treated mice (anti-p300). The note with it: YH250 2 mg/kg subcutaneously, 24 hrs. It counts as in vivo. How it is done:
YH250 was used in this study. Female C57/Black mice were administrated with either DMSO (solvent control) or YH250 (2 mg/kg) subcutaneously. 24 hrs later, bone marrow Sca-1posit cells were isolated with Anti-Sca-1 microbeads (Miltenyi Biotec, Cat#130-092-529) for co-immunoprecipitation (FIG. 4A). Cells were then lysed and incubated with either anti-CBP (A22) or anti-p300 (C20) antibodies. Then, the immunoprecipitation complex were electrophoresed and detected with antibodies to either β-catenin or γ-catenin. […] This confirms that YH250 directly disrupts the p300/catenin interaction thereby enhancing the CBP/catenin interaction in HSPCs.

In another assay the test system is bone marrow HSPC. The experiment in a line: HSPC proliferation in 7Gy irradiated mice (BrdU, cell cycle, FACS). In kind it is in vivo, mouse. The procedure: YH250 was also tested for stimulation of HSPC (hematopoietic stem/progenitor population) proliferation in irradiated animals. In this study, mice received 7Gy whole body radiation, DMSO or YH250 (s.c., 2 mg/Kg) were administrated 24 hours post radiation, followed with BrdU injection. FIG. 17A depicts the experimental procedure. […] Then, YH250 was administrated to 7Gy irradiated animals and 4 days later, bone marrow cells were isolated for FACS analysis for HSC markers (FIG. 17E).

For another assay, the system named is 5-FU treated mice. The experiment in a line: Recovery from repeated 5-FU administration. In kind it is in vivo, mouse. The procedure: To test if p300/-catenin antagonists can also promote multi-dosing chemotherapeutic drug induced bone marrow inhibition, 4 rounds of 5-FU (two doses in each round) administration were given to CD45.2 female mice. 150 mg/kg of 5-FU was given to mice for the first three rounds and then 200 mg/kg for the last round (4th round). The second dose of 5-FU was 6 days apart from the first dose of 5-FU in each round. Either DMSO or YH250 (2 mg/kg) were given to animals 24 hours after the first dose of 5-FU in each round of 5-FU administration (FIG. 25A). Animal body weight, survival rate and blood count changes were monitored. […] After each round of 5-FU administration, animals were allowed to recover to normal blood count before next round of 5-FU administration. FIG. 25E depicts the blood count at nadir points after each round of 5-FU administration.

For the next assay, the system named is R1 mESCs. The experiment in a line: Maintenance of mouse ES cell pluripotency, feeder free, 5 days. It counts as cell-based. How it is done:
We also determined that IQ-1 indirectly, via binding to the PR72/130 subunit of PP2A, inhibited the p300/β-catenin interaction (Id). Therefore, we anticipated that YH249/250 should also maintain mESC pluripotency in a Wnt dependent manner. To test his, R1 mESCs were cultured under feeder free conditions in the presence or absence of YH249/250 for 5 days. […] Pluripotency markers, Oct4, Nanog, Sox2, SSEA-1 and ALP, were all expressed in the cells treated with Wnt3a and YH250 (FIG. 28b). Moreover, Wnt3a could be replaced with the selective GSK-3 inhibitor CHIR99021, which activates the Wnt signaling pathway (FIG. 28a, lower panel). […] In the event, similarly to ID-8, the combination of Wnt3a and YH249/250 provided morphologically undifferentiated colonies of H9 human embryonic stem cells (hESCs) without FGF and TGF (FIG. 28c). hPSC markers were detected by ALP staining and immunofluorescence (FIG. 28d). In addition to H9 cells, two other hESC lines and a human induced pluripotent stem (iPS) cell line could be also maintained undifferentiated morphology utilizing the same conditions (not shown).
Specifically, FIG. 28A-28D, show maintenance of ESC's pluripotency by YH249 and YH250. […] 28A, Typical colony morphologies of RI mouse ES cells cultured 5 days in [upper panel] 3 μM CHIR99021 and 1 μM PD0325901 (2i) medium, basal medium (2i medium without CHIR99021 and PD0325901), basal medium supplemented with 50 ng/ml Wnt3a alone, [middle panel] combination of 50 ng/ml Wnt3a and 2 μM IQ-1, 500 nM YH249 or 200 nM YH250, [lower panel] 3 μM of CHIR99021 alone, and combination of 3 μM CHIR99021 and 500 nM YH249 or 200 nM YH250. […] The blue signal (Wnt3a panels) represents DAPI nuclear staining. Bars indicate […]. […] The blue signal (Wnt3a panels) represents DAP1 nuclear staining. Scale bars indicate 100 am.

[2] abbreviates: especially last three rounds of 5-FU.

SMILES strings stand for the structures. pIC50: −log10 of the molar value. Where only a bound is given, the exact number is not on record here.

The values below come from US20190125753A1, “COMPOUNDS AND METHODS FOR INCREASING HEMATOPOIESIS” (University of Southern California, priority 2016, published 2019).

Take `COc1cccc(CNC(=O)N2C3CN(Cc4cc(Cl)cc(Cl)c4N(C)C)C(=O)[C@H](Cc4ccc(O)cc4)N3C(=O)CN2C)c1OC` (stereo partly drawn) [YH250]: the pIC50 in the assay with Human survivin promoter was under 4.70. In addition, in assay [1], the p300/γ-catenin interaction entry is listed as “inhibits p300/γ-catenin interaction”. Also, in the assay with bone marrow HSPC (7Gy irradiation), the “bone marrow cells in S phase” value is “more bone marrow cells in S phase”. Further, the “HSPC (L−CD48−CD150+ cells)” value in the assay on bone marrow HSPC (7Gy, 4 days after administration) was “increased HSPC”. Also, the “BrdU positive cells in lineage negative (Lin) population” value with bone marrow HSPC (7Gy, s.c., 2 mg/Kg 24 hours post radiation) is listed as “more BrdUpost cells”. For the same compound, in the assay on 5-FU treated mice (4 rounds of 5-FU), the “RBC at nadir points” value was “no significant effect on RBC”. Also, in the assay on 5-FU treated mice (5-FU 200 mg/kg (4th round), 60% died in DMSO group, p=0.04), the survival result is listed as “all animals survived”. Also, in the assay on 5-FU treated mice (setting [2]), the “WBC at nadir point” value was “significantly higher” and the “platelet at nadir point” value was “significantly higher”. Also, the body weight entry in the assay on 5-FU treated mice (from second round of 5-FU administration, 2 mg/kg each round) is listed as “less weight drop”. Moreover, the “pluripotency markers Oct4, Nanog, Sox2, SSEA-1 and ALP” value in the assay on R1 mESCs (Wnt3a and 200 nM YH250) was “all expressed”. Moreover, the mESC pluripotency result in the assay with R1 mESCs (with 50 ng/ml Wnt3a or 3 μM CHIR99021, 500 nM YH249 or 200 nM YH250, 5 days) is listed as “maintain pluripotency”.
